Measurements from patent US9629866B2, “Use of cordycepin in manufacture of medicaments for anti-depression” (BEIJING GRAGEN BIOTECHNOLOGY CO. LTD., priority 2012, dated 2017).

What was measured:
Assay type in all cases: in vivo
[1] = system: CD1 male mice; experiment: Mice tail suspension test (animal depression model)
Method: In the mice tail suspension test, mice present the special quiet immobility state without any struggle in the tail suspension state, and antidepressant drugs can obviously shorten the duration of the immobility state. When tested, mice tails are fixed with clips, hanging upside-down. […] The time of immobility is recorded. The immobility indicator is “animal has no body movement in addition to breathing”. […] Laboratory Animal: CD1 mice, male, 25 g˜35 g, provided by Beijing Vital River Laboratories (VRL) (License No.: SCXK (Beijing), 2011-0011). Animals were kept in separate cages with free access to water; feed is provided by Laboratory Animal Center, Institute of Genetics and Developmental Biology, Chinese Academy of Sciences; laboratory mice ate ordinary feed. […] Drugs were delivered at 10 a.m. by intraperitoneal injection, 90 minutes after which tail suspension test statistics started. In mice tail suspension test, mice tails were stuck to a horizontal rail with tape 2 cm away from the tail tip, making animals upside down, whose heads were about 15 cm from the desktop. After observing for 6 minutes, the accumulative immobility time within the following 4 minutes was recorded. The immobility indicator was “animal has no body movement in addition to breathing”. Statistical Method: The laboratory results were all expressed by “mean value±SE”; two sample means were compared by t test.

[2] = system: CD1 male mice; experiment: Mice forced swimming test; conditions: for forced swimming immobility time within 4 minutes: blank control 111.96±14.58 s, mean±SE, P<0.05
Excerpt: “Immobility” herein refers to that “animals stop struggling in the water, or stay in a floating state, only showing nostrils for breathing with only small body movement to keep the head floating on the water”. Before the test, the drugs to be screened are given. The animals in the condition of forced swimming cannot escape from the harsh environment, leading to despairing animal behaviors. […] Laboratory Animal: CD1 mice, male, provided by Beijing Vital River Laboratories (VRL) (License No.: SCXK (Beijing), 2011-0011). Animals were kept in separate cages a week before test, with a light and shade cycle of 12 h/12 h, at room temperature 20° C.˜22° C., and with free access to water and food. Feed is provided by Laboratory Animal Center, Institute of Genetics and Developmental Biology, Chinese Academy of Sciences. CD1 mice, 7 weeks old, 25 g-35 g, were used for test after acclimating for 1 week. Mice were divided into 5 groups randomly, 8 mice for each. They were treated in the same way as Example 1: Drugs were delivered at 10 a.m. by intraperitoneal injection, once a day for 3 days, then forced swimming test started. Forced swimming test: All CD1 mice in each group were separately and vertically put into the organic glass cylinder (40 cm×14 cm in diameter) with 15 cm-depth and 23° C. water. After recoding a video of each dose group and control group for 6 minutes, the accumulative immobility time within the following 4 minutes was compared between each group. […] The laboratory results were all expressed by “mean value±SE”; two sample means were compared by t test.

[3] = system: CD1 male mice; experiment: Mice open field test to verify central excitability; conditions: measuring time 1 h/mouse, control 424.15+82.78 s, Anova p>0.05, N=12
Excerpt: Laboratory materials and methods are the same as Example 1 and Example 2.
Considering that the reduced immobility time of animals in classic animal depression models may be due to the central excitability effect of drugs, we conducted a mice open field test to verify the central excitability of cordycepin. Mice were processed 1 d before the open field behavior test. They were kept in the open box with 80 cm in both length and width, 40 cm in height, black wall, 16 equal sections in area, and indoor sound insulation. After the test started, mice were put in the middle of the box, and the time of mice staying in the central 4 sections was taken as a parameter. The measuring time was 1 h/mouse every time. […] Besides, there is no rising trend, so for cordycepin, the possibility of causing the manic state can be ruled out.

[4] = high-dose 12.5 mg/kg i.p. once a day for 3 days
[5] = low-dose 5 mg/kg i.p. once a day for 3 days

- time staying in the central 4 sections ([3]; high-dose group): 379.88+95.28 s
- time staying in the central 4 sections ([3]; low-dose group): 399.75+72.25 s
SMILES: Nc1ncnc2c1ncn2[C@@H]1O[C@H](CO)C[C@H]1O [cordycepin, 3′-deoxyadenosine]
- time needed for antidepressant effect to be very obvious ([1]; high-dose 12.5 mg/kg i.p.): 1.5 h
- decrease of tail suspension immobility time vs blank control ([1]; high-dose 12.5 mg/kg i.p., 90 min after injection): 60.8%
- tail suspension immobility time ([1]; high-dose 12.5 mg/kg i.p., 90 min after injection, blank control 86.43±20.37 s, mean±SE, P<0.05): 33.86 ± 7.46 s
- tail suspension immobility time vs control ([1]; low-dose 5 mg/kg i.p., 90 min after injection): has not been significantly reduced
- antidepressant effect compared with imipramine (15 mg/kg) [2, 4]: stronger antidepressant effects
- decrease of forced swimming immobility time vs blank control [2, 4]: 68.8%
- forced swimming immobility time within 4 minutes [2, 4]: 34.94 ± 12.16 s
- decrease of forced swimming immobility time vs blank control [2, 5]: 37.6%
- forced swimming immobility time within 4 minutes [2, 5]: 69.88 ± 10.25 s
